According to ChEMBL document CHEMBL1201862, “PubChem BioAssay data set” (2004):
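Five compound concentrations were applied to cells in 96-well plates for 48 hours; endpoints were derived by simple linear interpolation of the resulting dose-response curve. GI50: concentration for 50% inhibition of growth.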 The source made the active and inactive calls. Cut-off read from the data, not from the text of the source: active = GI50 up to about 1.1 µM and inactive = higher.

What was measured:
Assay in all cases: growth of human tumour cells (NCI), 48 h
[1] = test system: NCI-H23
[2] = test system: PC-3
[3] = test system: SF-268
[4] = test system: RXF 393
[5] = test system: SK-OV-3
[6] = test system: LOX IMVI
[7] = test system: CAKI-1
[8] = test system: UACC-257
[9] = test system: UACC-62
[10] = test system: HT-29
[11] = test system: SN12C
[12] = test system: COLO 205
[13] = test system: SK-MEL-28
[14] = test system: MCF7
[15] = test system: HCC 2998
[16] = test system: MOLT-4
[17] = test system: ACHN
[18] = test system: TK-10
[19] = test system: U-251
[20] = test system: HOP-92

| SMILES | GI50 [1] | GI50 [2] | GI50 [3] | GI50 [4] | GI50 [5] | GI50 [6] | GI50 [7] | GI50 [8] | GI50 [9] | GI50 [10] | GI50 [11] | GI50 [12] | GI50 [13] | GI50 [14] | GI50 [15] | GI50 [16] | GI50 [17] | GI50 [18] | GI50 [19] | GI50 [20] |
| --- | --- | --- | --- | --- | --- | --- | --- | --- | --- | --- | --- | --- | --- | --- | --- | --- | --- | --- | --- | --- |
| CC1(C)O[C@@H](CP(c2cccc3ccccc23)c2cccc3ccccc23)[C@H](CP(c2cccc3ccccc23)c2cccc3ccccc23)O1 | > 100 µM (inactive) | > 100 µM (inactive) | > 100 µM (inactive) | > 100 µM (inactive) | > 100 µM (inactive) | > 100 µM (inactive) | > 100 µM (inactive) | > 100 µM (inactive) | > 100 µM (inactive) | > 100 µM (inactive) | > 100 µM (inactive) | > 100 µM (inactive) | > 100 µM (inactive) | > 100 µM (inactive) | > 100 µM (inactive) | > 100 µM (inactive) | > 100 µM (inactive) | > 100 µM (inactive) | > 100 µM (inactive) | – |
| Cc1ccc2c(c1)C(O)(c1ccccc1)CCS2 (centres undefined) | 28.5 µM (inactive) | 25.8 µM (inactive) | 38.4 µM (inactive) | 68.5 µM (inactive) | > 100 µM (inactive) | 19.9 µM (inactive) | 22 µM (inactive) | 42 µM (inactive) | 22.4 µM (inactive) | 25.4 µM (inactive) | 32.6 µM (inactive) | 30.3 µM (inactive) | 37.6 µM (inactive) | 39.4 µM (inactive) | – | 15.3 µM (inactive) | 27.2 µM (inactive) | 32.1 µM (inactive) | 21.7 µM (inactive) | 17.7 µM (inactive) |
| O=[N+]([O-])C(C(Cl)=C(Cl)Cl)=C(N1CCCCC1)N1CCCCC1 | > 100 µM (inactive) | > 100 µM (inactive) | > 100 µM (inactive) | 63.1 µM (inactive) | > 100 µM (inactive) | 55 µM (inactive) | 58.6 µM (inactive) | 63.4 µM (inactive) | > 100 µM (inactive) | > 100 µM (inactive) | > 100 µM (inactive) | > 100 µM (inactive) | > 100 µM (inactive) | 90.4 µM (inactive) | > 100 µM (inactive) | 33.7 µM (inactive) | > 100 µM (inactive) | > 100 µM (inactive) | > 100 µM (inactive) | – |
| CCC(=O)O[C@H]1CC[C@H]2[C@@H]3CCC4=CC(=O)C=C[C@]4(O)[C@H]3CC[C@]12C | 22 µM (inactive) | 23.8 µM (inactive) | 31 µM (inactive) | 24.5 µM (inactive) | 82.6 µM (inactive) | 16.7 µM (inactive) | 24.3 µM (inactive) | 3.72 µM (inactive) | 15.4 µM (inactive) | 19.1 µM (inactive) | 41.9 µM (inactive) | 37.8 µM (inactive) | 67.6 µM (inactive) | 23.9 µM (inactive) | – | 8.87 µM (inactive) | 55.7 µM (inactive) | 57.4 µM (inactive) | 20.5 µM (inactive) | 31.2 µM (inactive) |
| NCCc1ccc(S(=O)(=O)O)cc1[N+](=O)[O-] | > 100 µM (inactive) | > 100 µM (inactive) | > 100 µM (inactive) | > 100 µM (inactive) | > 100 µM (inactive) | > 100 µM (inactive) | > 100 µM (inactive) | > 100 µM (inactive) | > 100 µM (inactive) | > 100 µM (inactive) | > 100 µM (inactive) | > 100 µM (inactive) | > 100 µM (inactive) | > 100 µM (inactive) | – | – | > 100 µM (inactive) | > 100 µM (inactive) | > 100 µM (inactive) | > 100 µM (inactive) |
| CC[C@]12C=CCN3CCC4(c5cc([C@@]6(C(=O)OC)CC7CN(CCc8c6[nH]c6ccccc86)C[C@@H]6CCCC[C@H]76)c(OC)cc5N(C)C4[C@](O)(C(=O)OC)C1OC(C)=O)[C@@H]32 (some centres undefined) | < 0.01 µM (active) | < 0.01 µM (active) | < 0.01 µM (active) | < 0.01 µM (active) | < 0.01 µM (active) | < 0.01 µM (active) | – | – | < 0.01 µM (active) | < 0.01 µM (active) | < 0.01 µM (active) | < 0.01 µM (active) | 2.11 µM (inactive) | < 0.01 µM (active) | < 0.01 µM (active) | < 0.01 µM (active) | < 0.01 µM (active) | < 0.01 µM (active) | < 0.01 µM (active) | 0.0259 µM (active) |
| C=C1C(=O)O[C@@H]2[C@H]1CC[C@H](C)[C@]1(O)CCC(=O)[C@@]21C [CORONOPILIN] | 4.16 µM (inactive) | > 10 µM (inactive) | > 10 µM (inactive) | > 10 µM (inactive) | > 10 µM (inactive) | > 10 µM (inactive) | – | – | > 10 µM (inactive) | > 10 µM (inactive) | > 10 µM (inactive) | > 10 µM (inactive) | > 10 µM (inactive) | > 10 µM (inactive) | > 10 µM (inactive) | > 10 µM (inactive) | – | > 10 µM (inactive) | > 10 µM (inactive) | > 10 µM (inactive) |
